Laboratory results published in patent publication US7815900B1, “Use of C3-C5 monosaccharides to protect keratinous fibers” (L'Oréal S.A., priority 2000, dated 2010).

Key:
[1] = Cuticle loss estimated by UV transmittance of suspension; details: relaxed ethnic hair, greater transmittance = less cuticle loss
Procedure: (§1) Kinky hair was relaxed using 2.5% sodium hydroxide (20 min at room temperature). The hair was thoroughly rinsed with water, and a treatment solution was applied for 10 min at 45° C. Each of the following treatment solutions were tested: a) 1% D-xylose, b) 5% D-xylose, and c) deionized water-control treatment.
The cuticle loss was estimated as follows. The relaxed/treated hair (0.5 g) was immersed in 2.5 mL deionized water for 15 min at 45° C. The hair was removed and UV transmittance of the remaining cloudy suspension was determined. The greater the transmittance, the less material is suspended, and therefore, the less damage to the hair.

[2] = DSC double peak area of relaxed hair after treatment; details: for Double Peak Area: relaxed ethnic hair, 10 min at 45° C.
Procedure: as §1

[3] = Protein loss from hair in water; details: bleached hair treated 5 times (1% solutions; Xylo-Biose Syrup 1.5%), then 1 h at 45° C. in deionized water
Procedure: XyloBiose Syrup is a raw material that contains about 15 wt % of xylobiose (dimer) and about 12 wt % of xylose. Xylo-Oligo 95P is a raw material containing about 22 wt % of xylobiose. Bleached hair was rinsed and blot-dried with a paper-towel. The treatment solution was then applied to the hair for 10 min at 45° C., and the hair was blow-dried. The procedure was repeated 5 times. Each of the following solutions was tested: • 1% D-Xylose • 1% Xylo-Oligo 95P • 1.5% XyloBiose Syrup • deionized water-control treatment
Following blow drying, a hair swatch (0.5 g) was immersed in 25 mL of deionized water for 1 h at 45° C. and the water was analyzed for the protein content. Id.

[4] = Hair chemical composition (lysine, arginine) after heat cycles; details: 1.0% solution
Procedure: The repairing of the damaged hair by pentoses is further supported by changes in the hair chemical composition that are observed when the hair was treated with pentose solutions, followed by heat application. Specifically, the amounts of lysine and arginine decreased, as compared to the hair treated with water (Table 19). The change in the lysine/arginine content, in conjunction with the decreased extension to break, appears to indicate that some cross-linking processes occur when the hair is heated in the presence of pentoses.

[5] = Tensile strength (work to break) of relaxed hair after treatment; details: relaxed ethnic hair, 10 min at 45° C.
Procedure: as §1

[6] = bleached/permed hair after 12 cycles at 130° C.

SMILES: O=C[C@H](O)[C@@H](O)[C@H](O)CO [D-Xylose]
- Transmittance, at 600 nm ([1]; 1% solution): 0.9545
- Transmittance, at 600 nm ([1]; 5% solution): 0.9339
- Double Peak Area ([2]; 1% solution): 14.10 +/− 2.52 J/g hair
- Double Peak Area ([2]; 5% solution): 21.35 +/− 19.02 J/g hair
- protection of relaxed hair (α-structure, tensile strength, cuticle loss) compared to water, in words ([2]; relaxed kinky hair): protected
- Protein loss [3]: 200.9 +/− 36.5 microgram/g hair
- Arginine ([4]; bleached hair after 12 cycles at 130° C.): 8.0 +/− 0.1 wt %
- Arginine [4, 6]: 7.2 +/− 0.1 wt %
- Lysine [4, 6]: 1.6 +/− 0.1 wt %
- Work to Break ([5]; 1% solution): 749 +/− 151 J/m^2
- Work to Break ([5]; 5% solution): 1,200 +/− 222 J/m^2
